The test deals with human APJ receptor (Homo sapiens (Human), UniProt P35414). Put plainly: biochemical. The class given is biochemical. The following applies: read-out: Activity hAPJ SPA EC50 IP. The gist of the method:
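Membranes from CHO cells stably expressing cloned human APJ were incubated with WGA SPA beads in 20 mM HEPES pH 7.5, 5 mM MgCl2, 0.1% BSA, 200 mM NaCl and 3 μM GDP. Reaction started with 0.2 nM [35S]GTPγS ± ligands, 90 min at RT. EC50 obtained by non-linear regression as mean of independent experiments.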

Structures are written as SMILES.

human APJ receptor, sequence (P35414 whole entry): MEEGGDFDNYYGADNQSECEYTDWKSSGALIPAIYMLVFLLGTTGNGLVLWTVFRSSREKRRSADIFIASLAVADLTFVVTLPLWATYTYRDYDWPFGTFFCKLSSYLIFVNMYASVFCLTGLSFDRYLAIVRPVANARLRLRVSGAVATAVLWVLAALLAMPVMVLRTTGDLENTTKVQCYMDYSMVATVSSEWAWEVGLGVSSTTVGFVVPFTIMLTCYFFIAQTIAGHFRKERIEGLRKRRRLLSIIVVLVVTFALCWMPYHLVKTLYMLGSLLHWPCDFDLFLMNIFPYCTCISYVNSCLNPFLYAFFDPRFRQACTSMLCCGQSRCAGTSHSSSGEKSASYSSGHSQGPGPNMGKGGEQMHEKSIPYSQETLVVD

For orientation: EC50 means the concentration needed to bring the measured effect to its halfway point. For the compound `COc1cccc(OC)c1-n1c(NS(=O)(=O)C[C@H](O)c2ccc(C#N)cc2S(C)(=O)=O)nnc1-c1cncc(C)c1` (single isomer, unassigned) [Example 491.0, (2R)-2-(4-cyano-2-(methylsulfonyl)phenyl)-N-(4-(2,6-dimethoxyphenyl)-5-(5-methyl-3-pyridinyl)-4H-1,2,4-triazol-3-yl)-2-hydroxyethanesulfonamide or (2S)-2-(4-cyano-2-(methylsulfonyl)phenyl)-N-(4-(2,6-dimethoxyphenyl)-5-(5-methyl-3-pyridinyl)-4H-1,2,4-triazol-3-yl)-2-hydroxyethanesulfonamide], the EC50 is 0.33 nM.

As to `COc1cccc(OC)c1-n1c(NS(=O)(=O)C[C@H](O)c2ccc(C#N)cc2S(C)(=O)=O)nnc1-c1cncc(C)c1` (single isomer, unassigned) [Example 492.0, (2R)-2-(4-cyano-2-(methylsulfonyl)phenyl)-N-(4-(2,6-dimethoxyphenyl)-5-(5-methyl-3-pyridinyl)-4H-1,2,4-triazol-3-yl)-2-hydroxyethanesulfonamide or (2S)-2-(4-cyano-2-(methylsulfonyl)phenyl)-N-(4-(2,6-dimethoxyphenyl)-5-(5-methyl-3-pyridinyl)-4H-1,2,4-triazol-3-yl)-2-hydroxyethanesulfonamide], the EC50 was found to be 0.61 nM.

Consider `COc1cccc(OC)c1-n1c(NS(=O)(=O)[C@H](C)[C@@H](OC)c2ccc(Cl)cn2)nnc1-c1cccnc1` (single isomer, unassigned) [Example 530.0, (1S,2R)-1-(5-chloro-2-pyridinyl)-N-(4-(2,6-dimethoxyphenyl)-5-(3-pyridinyl)-4H-1,2,4-triazol-3-yl)-1-methoxy-2-propanesulfonamide or (1R,2S)-1-(5-chloro-2-pyridinyl)-N-(4-(2,6-dimethoxyphenyl)-5-(3-pyridinyl)-4H-1,2,4-triazol-3-yl)-1-methoxy-2-propanesulfonamide], for which the EC50 came to 48.5 nM.

With `COc1cccc(OC)c1-n1c(NS(=O)(=O)[C@@H](C)[C@@](C)(F)c2ncc(C#N)cn2)nnc1-c1cncc(C)c1` (single isomer, unassigned) [Example 537.0], the concentration for a half-maximal effect (EC50) was 57 nM.

`COc1cccc(OC)c1-n1c(NS(=O)(=O)[C@@H](C)[C@@](C)(F)c2ncc(C#N)cn2)nnc1-c1cncc(C)c1` (single isomer, unassigned) [Example 538.0]: the EC50 came out at 4.5 nM.

For the compound `COc1cccc(OC)c1-n1c(NS(=O)(=O)[C@H](C)[C@@H](OC)c2ccc(C#N)cn2)nnc1-c1cncc(C)c1` (single isomer, unassigned) [Example 552.0], the EC50 was determined as 0.28 nM.

Turning to `COc1cccc(OC)c1-n1c(NS(=O)(=O)[C@H](C)[C@@H](OC)c2ccc(C#N)cn2)nnc1-c1cncc(C)c1` (single isomer, unassigned) [Example 553.0], the EC50 worked out at 41 nM.

With `COc1cccc(OC)c1-n1c(NS(=O)(=O)[C@H](C)[C@@H](OC)c2ccc(C#N)cn2)nnc1-c1cncc(C)c1` (single isomer, unassigned) [Example 554.0], the half-maximal effective concentration (EC50) was found to be 2.7 nM.

On to `COc1cccc(OC)c1-n1c(NS(=O)(=O)[C@H](C)[C@@H](OC)c2ccc(C#N)cn2)nnc1-c1cncc(C)c1` (single isomer, unassigned) [Example 555.0], for which the EC50 was 41 nM.

On to `COc1cccc(OC)c1-n1c(NS(=O)(=O)[C@H](C)[C@@H](OC)c2ncc(Cl)cn2)nnc1-c1cncc(C)c1` (single isomer, unassigned) [Example 558.0], for which the EC50 was found to be 30 nM.

Take `COc1cccc(OC)c1-n1c(NS(=O)(=O)[C@H](C)[C@@H](OC)c2ncc(Cl)cn2)nnc1-c1cncc(C)c1` (single isomer, unassigned) [Example 559.0]: the EC50 worked out at 120 nM.

For `COc1cccc(OC)c1-n1c(NS(=O)(=O)[C@H](C)[C@@H](OC)c2ncc(Cl)cn2)nnc1-c1cncc(C)c1` (single isomer, unassigned) [Example 560.0], the EC50 was 0.88 nM.

With `CCO[C@@H](c1cnc(C)cn1)[C@@H](C)S(=O)(=O)Nc1nnc(-c2cncc(C)c2)n1-c1c(OC)cccc1OC` (single isomer, unassigned) [Example 565.0, (1S,2R)—N-(4-(2,6-dimethoxyphenyl)-5-(5-methyl-3-pyridinyl)-4H-1,2,4-triazol-3-yl)-1-ethoxy-1-(5-methyl-2-pyrazinyl)-2-propanesulfonamide or (1R,2S)—N-(4-(2,6-dimethoxyphenyl)-5-(5-methyl-3-pyridinyl)-4H-1,2,4-triazol-3-yl)-1-ethoxy-1-(5-methyl-2-pyrazinyl)-2-propanesulfonamide], the EC50 came to 100 nM.

`CCO[C@@H](c1cnc(C)cn1)[C@@H](C)S(=O)(=O)Nc1nnc(-c2cncc(C)c2)n1-c1c(OC)cccc1OC` (single isomer, unassigned) [Example 566.0, (1S,2R)—N-(4-(2,6-dimethoxyphenyl)-5-(5-methyl-3-pyridinyl)-4H-1,2,4-triazol-3-yl)-1-ethoxy-1-(5-methyl-2-pyrazinyl)-2-propanesulfonamide or (1R,2S)—N-(4-(2,6-dimethoxyphenyl)-5-(5-methyl-3-pyridinyl)-4H-1,2,4-triazol-3-yl)-1-ethoxy-1-(5-methyl-2-pyrazinyl)-2-propanesulfonamide]: the EC50 amounted to 62 nM.

Consider `COc1cccc(OC)c1-n1c(NS(=O)(=O)[C@H](C)[C@@H](O)c2cnc(C)cn2)nnc1-c1cncc(C)c1` (single isomer, unassigned) [Example 568.0, (1S,2R)—N-(4-(2,6-dimethoxyphenyl)-5-(5-methyl-3-pyridinyl)-4H-1,2,4-triazol-3-yl)-1-hydroxy-1-(5-methyl-2-pyrazinyl)-2-propanesulfonamide or (1R,2S)—N-(4-(2,6-dimethoxyphenyl)-5-(5-methyl-3-pyridinyl)-4H-1,2,4-triazol-3-yl)-1-hydroxy-1-(5-methyl-2-pyrazinyl)-2-propanesulfonamide], for which the EC50 is 7.1 nM.

`COc1cccc(OC)c1-n1c(NS(=O)(=O)[C@H](C)[C@@H](O)c2cnc(C)cn2)nnc1-c1cncc(C)c1` (single isomer, unassigned) [Example 569.0, (1S,2R)—N-(4-(2,6-dimethoxyphenyl)-5-(5-methyl-3-pyridinyl)-4H-1,2,4-triazol-3-yl)-1-hydroxy-1-(5-methyl-2-pyrazinyl)-2-propanesulfonamide or (1R,2S)—N-(4-(2,6-dimethoxyphenyl)-5-(5-methyl-3-pyridinyl)-4H-1,2,4-triazol-3-yl)-1-hydroxy-1-(5-methyl-2-pyrazinyl)-2-propanesulfonamide]: the EC50 is 0.26 nM.

With `COc1cccc(-c2nnc(NS(=O)(=O)[C@@H](C)[C@H](O)c3cnc(C)cn3)n2-c2c(OC)cccc2OC)n1` (single isomer, unassigned) [Example 577.0, (1R,2S)—N-(4-(2,6-dimethoxyphenyl)-5-(6-methoxy-2-pyridinyl)-4H-1,2,4-triazol-3-yl)-1-hydroxy-1-(5-methyl-2-pyrazinyl)-2-propanesulfonamide or (1S,2R)—N-(4-(2,6-dimethoxyphenyl)-5-(6-methoxy-2-pyridinyl)-4H-1,2,4-triazol-3-yl)-1-hydroxy-1-(5-methyl-2-pyrazinyl)-2-propanesulfonamide], the EC50 is 0.24 nM.

Take `COc1cccc(-c2nnc(NS(=O)(=O)[C@@H](C)[C@H](O)c3cnc(C)cn3)n2-c2c(OC)cccc2OC)n1` (single isomer, unassigned) [Example 578.0, (1R,2S)—N-(4-(2,6-dimethoxyphenyl)-5-(6-methoxy-2-pyridinyl)-4H-1,2,4-triazol-3-yl)-1-hydroxy-1-(5-methyl-2-pyrazinyl)-2-propanesulfonamide or (1S,2R)—N-(4-(2,6-dimethoxyphenyl)-5-(6-methoxy-2-pyridinyl)-4H-1,2,4-triazol-3-yl)-1-hydroxy-1-(5-methyl-2-pyrazinyl)-2-propanesulfonamide]: the EC50 was determined as 2.7 nM.

As for `COc1cccc(-c2nnc(NS(=O)(=O)[C@@H](C)[C@@H](O)c3ncc(C)cn3)n2-c2c(OC)cccc2OC)n1` (single isomer, unassigned) [Example 583.0], the EC50 is 0.19 nM.

On to `CCO[C@@H](c1ncc(Cl)cn1)[C@H](C)S(=O)(=O)Nc1nnc(-c2cncc(C)c2)n1-c1c(OC)cccc1OC` (single isomer, unassigned) [Example 609.0], for which the EC50 stood at 9.4 nM.

As to `CCO[C@@H](c1ncc(Cl)cn1)[C@H](C)S(=O)(=O)Nc1nnc(-c2cncc(C)c2)n1-c1c(OC)cccc1OC` (single isomer, unassigned) [Example 611.0], the EC50 is 0.19 nM.

As to `CCO[C@@H](c1ncc(Cl)cn1)[C@H](C)S(=O)(=O)Nc1nnc(-c2cncc(C)c2)n1-c1c(OC)cccc1OC` (single isomer, unassigned) [Example 612.0], the EC50 was found to be 13 nM.

For `COc1cccc(OC)c1-n1c(NS(=O)(=O)[C@@H](C)[C@H](OC)c2ccc(F)cc2C#N)nnc1-c1cncc(C)c1` (single isomer, unassigned) [Example 623.0], the concentration giving a half-maximal response (EC50) stood at 130 nM.

Consider `COc1cccc(OC)c1-n1c(NS(=O)(=O)[C@@H](C)[C@@H](OC(C)C)c2ncc(C)cn2)nnc1-c1cccnc1` (single isomer, unassigned) [Example 627.0, (1R,2R)-N-(4-(2,6-dimethoxyphenyl)-5-(pyridin-3-yl)-4H-1,2,4-triazol-3-yl)-1-isopropoxy-1-(5-methylpyrimidin-2-yl)propane-2-sulfonamide or (1S,2S)-N-(4-(2,6-dimethoxyphenyl)-5-(pyridin-3-yl)-4H-1,2,4-triazol-3-yl)-1-isopropoxy-1-(5-methylpyrimidin-2-yl)propane-2-sulfonamide], for which the EC50 turned out to be 1.1 nM.

For `COc1cccc(OC)c1-n1c(NS(=O)(=O)[C@@H](C)[C@@H](C)n2cc(C)cn2)nnc1-c1cncc(C)c1` (single isomer, unassigned) [Example 650.0], the EC50 turned out to be 39 nM.

`COc1cccc(OC)c1-n1c(NS(=O)(=O)[C@@H](C)[C@@H](C)n2cc(C)cn2)nnc1-c1cncc(C)c1` (single isomer, unassigned) [Example 651.0]: the EC50 was determined as 85 nM.

Values taken from US10058550B2, “Methods of treating heart failure” (priority 2015, dated 2018).
